# Legend:
# [1] = system: TLR4; details: enterocytes and macrophages in vitro; cited from earlier work
# [2] = target: T1, TLR4 co-receptor MD-2 (Homo sapiens, UniProt Q9Y6Y9); details: cited from earlier work
# T1 sequence (Q9Y6Y9 19-160): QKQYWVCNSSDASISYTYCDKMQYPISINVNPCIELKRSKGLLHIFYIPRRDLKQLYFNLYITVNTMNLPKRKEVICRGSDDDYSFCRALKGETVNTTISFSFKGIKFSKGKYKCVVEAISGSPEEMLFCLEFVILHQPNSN
# [3] = system: systemic inflammation; details: mouse models of endotoxemia and necrotizing enterocolitis; cited from earlier work
# [4] = system: LPS signaling; details: human ileum resected from infants with NEC; cited from earlier work
# [5] = system: LPS-induced brain injury; assay: LPS-induced brain injury in a neonatal rabbit model of cerebral palsy; assay type: in vivo
# Description: The therapeutic efficacy of G4-PAMAM-S--S-NAC dendrimer conjugate was evaluated after two days of animal treatment with lipopolysaccharide (LPS) to induce white matter injury and hypomyelination in the developing rabbit brain (an animal model of Cerebral Palsy). […] This supports a conclusion that the G4-PAMAM-S--S-NAC traversed across the BBB. The targeted delivery of NAC from dendrimer complex to actived microglial cells improved the motor deficits and attenuated recovery from the LPS-induced brain injury in a neonatal rabbit model of cerebral palsy.
# (§1) Treatment with G4-PAMAM-S--S-NAC dendrimer complexes reduced white matter injury and microglia activation. […] This activity of the dendrimer-NAC conjugates may be attributed to its ability to interfere with the early inflammatory responses by blocking or modifying the signal transduction factor NF-.kappa.B and nitrotyrosine, thereby modulating cellular activation. 6 and 8 arm PEG-NAC conjugates released 74% of NAC in the intracellular GSH concentration (2 and 10 mM), within 2 hours. At a concentration range of between 0.008-0.8 mM, the conjugates were nontoxic to the microglial cells. […] At the highest concentration (5 mM), the free drug reduced the H2O2 levels and nitrite levels by 30-40%, whereas the conjugates reduced the H2O2 and nitrite levels by more than 70%. […] PEGylated NAC is a dendrimer complex with utility for the pharmaceutical industry, as PEGs are approved for human use and this device addresses limitations of NAC and provides greater efficacy.
# [6] = system: microglial cells; assay: GSH depletion, ROS, H2O2 and NO/nitrite production; assay type: cell-based; details: highest concentration (5 mM)
# Description: as §1
# [7] = free drug; cited from earlier work
# [8] = system: TLR4-mediated inflammatory signaling; details: SAR study of C34 analogs; cited from earlier work
# [9] = compared to kits treated with saline
structure (smiles),measurement,setting,value
CC(=O)N[C@H]1[C@@H](OC(C)C)O[C@H](COC(C)=O)[C@@H](OC(C)=O)[C@@H]1OC(C)=O [C34],TLR4 inhibition,[1],inhibits
same,docking fit to hydrophobic internal pocket of MD-2,[2],tight fit
same,systemic inflammation,[3],reduces
same,LPS signaling ex-vivo,[4],inhibited
"CC(=O)N[C@@H](CS)C(=O)O [NAC, N-acetyl cysteine]",dose eliciting identical responses,[5]; LPS-induced brain injury,100 mg/kg
same,fetal inflammation response,[5]; [9],decrease
same,motor deficits,[5]; [9],improvement
same,reduction of H2O2 levels,[6],30-40%
same,reduction of nitrite levels,[6],30-40%
same,bioavailability,[7],low
same,plasma protein binding,[7],very high
"CC(=O)N[C@H]1[C@@H](OC(C)C)O[C@H](CO)[C@H](O)[C@@H]1O [compound 17, isopropyl 2-acetamido-α-galactoside]",efficacy relative to C34 series,[8],more efficacious
